A value given as a limit tells only on which side of the number the result lay.

The subject of one assay is NCI-H1581 cells. In words: Cell proliferation assay on NCI-H1581 (Table 7). Format: cell-based, human. The following applies: Homo sapiens, NCI-H1581, read-out: IC50(nM) value of compounds on NCI-H1581 cells. The source says: Test method: adding the appropriate volume of whole medium and the cells was suspended.
As for `COc1cc(OC)c(Cl)c(-c2cc3cnc(Nc4ccc(N5CCN6CCC[C@H]6C5)cc4)nc3n3cnnc23)c1` [Compound 25, (S)-6-(2-chloro-3,5-dimethoxyphenyl)-N-(4-(hexahydropyrrolo[1,2-a]pyrazin-2(1H)-yl)phenyl)-[1,2,4]triazolo[4′,3′:1,6]pyrido[2,3-d]pyrimidin-2-amine], the IC50 (in general, the midpoint of a concentration-inhibition curve) lay in the range of 1 to 10 nM. Still for that read-out and setting: the result for `COc1cc(OC)c(Cl)c(-c2cc3cnc(Nc4ccc(OCCN5CCCC5)cc4)nc3n3cnnc23)c1` [Compound 28, 6-(2-chloro-3,5-dimethoxyphenyl)-N-(4-(2-(pyrrolidin-1-yl)ethoxy)phenyl)-[1,2,4]triazolo[4′,3′:1,6]pyrido[2,3-d]pyrimidin-2-amine] reads 2.9 nM. With `COc1cc(OC)c(Cl)c(-c2cc3cnc(Nc4ccc(CN5CCOCC5)cc4)nc3n3cnnc23)c1` [Compound 45, 6-(2-chloro-3,5-dimethoxyphenyl)-N-(4-(morpholinomethyl)phenyl)-[1,2,4]triazolo[4′,3′:1,6]pyrido[2,3-d]pyrimidin-2-amine], the IC50 was 0.9 nM. The same measure, in the same setting: to `COc1cc(OC)c(Cl)c(-c2cc3cnc(Nc4ccc(C(=O)N5C[C@@H](C)N[C@@H](C)C5)cc4)nc3n3cnnc23)c1` [Compound 59, (4-((6-(2-chloro-3,5-dimethoxyphenyl)-[1,2,4]triazolo[4′,3′:1,6]pyrido[2,3-d]pyrimidin-2-yl)amino)phenyl)((3 S,5R)-3,5-dimethylpiperazin-1-yl)methanone] belongs 1.8 nM.

As for `CCN1CCC(c2ccc(Nc3ncc4cc(-c5cc6[nH]c(C)nc6cc5Cl)c5nncn5c4n3)cc2)CC1` [Compound 79, 6-(5-chloro-2-methyl-1H-benzo[d]imidazol-6-yl)-N-(4-(1-ethylpiperidin-4-yl)phenyl)-[1,2,4]triazolo[4′,3′:1,6]pyrido[2,3-d]pyrimidin-2-amine], the IC50 worked out at 11.5 nM.

The same assay, now with this note: Homo sapiens, NCI-H1581; CellTiter 96 AQueous (144 hrs) or CellTiter Glo (96 hrs); class symbols; read-out: IC50(nM) value of compounds on NCI-H1581 cells.
In the case of `COc1cc(OC)c(Cl)c(-c2cc3cnc(Nc4ccc(N5CCN(C6CCN(C)CC6)CC5)cc4)nc3n3cnnc23)c1` [Compound 22, 6-(2-chloro-3,5-dimethoxyphenyl)-N-(4-(4-(1-methylpiperidin-4-yl)piperazin-1-yl)phenyl)-[1,2,4]triazolo[4′,3′:1,6]pyrido[2,3-d]pyrimidin-2-amine], the IC50 fell in the range of 1 to 10 nM. On the same count and under the same terms, the result for `COc1cc(OC)c(Cl)c(-c2cc3cnc(Nc4ccc(OCCN5CCOCC5)cc4)nc3n3cnnc23)c1` [Compound 33, 6-(2-chloro-3,5-dimethoxyphenyl)-N-(4-(2-morpholinoethoxy)phenyl)-[1,2,4]triazolo[4′,3′:1,6]pyrido[2,3-d]pyrimidin-2-amine] reads 1 to 10 nM. The same measure, in the same setting: to `COc1cc(OC)c(Cl)c(-c2cc3cnc(Nc4ccc(C5CCN(C)CC5)cc4)nc3n3cnnc23)c1` [Compound 37, 6-(2-chloro-3,5-dimethoxyphenyl)-N-(4-(1-methylpiperidin-4-yl)phenyl)-[1,2,4]triazolo[4′,3′:1,6]pyrido[2,3-d]pyrimidin-2-amine] belongs 1 to 10 nM.

In the case of `COc1cc(OC)c(Cl)c(-c2cc3cnc(Nc4cccc(N5CCN6CCC[C@@H]6C5)c4)nc3n3cnnc23)c1` [Compound 38, (R)-6-(2-chloro-3,5-dimethoxyphenyl)-N-(3-(hexahydropyrrolo[1,2-a]pyrazin-2(1H)-yl)phenyl)-[1,2,4]triazolo[4′,3′:1,6]pyrido[2,3-d]pyrimidin-2-amine], the IC50 was 1 to 10 nM.

As to `COc1cc(OC)c(Cl)c(-c2cc3cnc(Nc4ccc(N5CC(=O)N6CCC[C@@H]6C5)cc4)nc3n3cnnc23)c1` [Compound 40, (R)-2-(4-((6-(2-chloro-3,5-dimethoxyphenyl)-[1,2,4]triazolo[4′,3′:1,6]pyrido[2,3-d]pyrimidin-2-yl)amino)phenyl)hexahydropyrrolo[1,2-a]pyrazin-4(1H)-one], the IC50 was greater than 100 nM. The same measure, in the same setting: to `CNC1CCN(c2ccc(Nc3ncc4cc(-c5cc(OC)cc(OC)c5Cl)c5nncn5c4n3)cc2)CC1` [Compound 49, 6-(2-chloro-3,5-dimethoxyphenyl)-N-(4-(4-(methylamino)piperidin-1-yl)phenyl)-[1,2,4]triazolo[4′,3′:1,6]pyrido[2,3-d]pyrimidin-2-amine] belongs less than 1 nM; to `COc1cc(OC)c(Cl)c(-c2cc3cnc(Nc4ccc(N5C[C@@H](C)N[C@@H](C)C5)c(OC)c4)nc3n3cnnc23)c1` [Compound 55, 6-(2-chloro-3,5-dimethoxyphenyl)-N-(4-((3 S,5R)-3,5-dimethylpiperazin-1-yl)-3-methoxyphenyl)-[1,2,4]triazolo[4′,3′:1,6]pyrido[2,3-d]pyrimidin-2-amine], 1 to 10 nM. `COc1cc(OC)c(Cl)c(-c2cc3cnc(Nc4ccc(C(=O)N5C[C@@H](C)N[C@@H](C)C5)cc4)nc3n3cnnc23)c1Cl` [Compound 60, (4-((6-(2,6-dichloro-3,5-dimethoxyphenyl)-[1,2,4]triazolo[4′,3′:1,6]pyrido[2,3-d]pyrimidin-2-yl)amino)phenyl)((3S,5R)-3,5-dimethylpiperazin-1-yl)methanone]: the IC50 is less than 1 nM. Same read-out and setting: the result for `Cc1nc2ccc(-c3cc4cnc(Nc5ccc(N6CCOCC6)cc5)nc4n4cnnc34)c(Cl)c2[nH]1` [Compound 83, 6-(7-chloro-2-methyl-1H-benzo[d]imidazol-6-yl)-N-(4-morpholinophenyl)-[1,2,4]triazolo[4′,3′:1,6]pyrido[2,3-d]pyrimidin-2-amine] reads greater than 100 nM; that for `C=CC(=O)N1CCN(CCc2nc3c(-c4cc(OC)cc(OC)c4Cl)cc4cnc(NC)nc4n3n2)CC1` [Compound 116, 1-(4-(2-(4-(2-chloro-3,5-dimethoxyphenyl)-8-(methylamino)-[1,2,4]triazolo[1′,5′:1,6]pyrido[2,3-d]pyrimidin-2-yl)ethyl)piperazin-1-yl)prop-2-en-1-one], 10 to 100 nM; that for `C=CC(=O)N1CCN(Cc2nc3c(-c4cc(OC)cc(OC)c4Cl)cc4cnc(NC)nc4n3n2)CC1` [Compound 117, 1-(4-((4-(2-chloro-3,5-dimethoxyphenyl)-8-(methylamino)-[1,2,4]triazolo[1′,5′:1,6]pyrido[2,3-d]pyrimidin-2-yl)methyl)piperazin-1-yl)prop-2-en-1-one], 10 to 100 nM.

On to `C=CC(=O)N1CCN(CCc2nc3c(-c4c(Cl)c(OC)cc(OC)c4Cl)cc4cnc(NC)nc4n3n2)CC1` [Compound 124, 1-(4-(2-(4-(2,6-dichloro-3,5-dimethoxyphenyl)-8-(methylamino)-[1,2,4]triazolo[1′,5′:1,6]pyrido[2,3-d]pyrimidin-2-yl)ethyl)piperazin-1-yl)prop-2-en-1-one], for which the IC50 was 1 to 10 nM.

Regarding `C=CC(=O)N1C[C@@H](C)N(CCCc2nc3c(-c4c(Cl)c(OC)cc(OC)c4Cl)cc4cnc(NC)nc4n3n2)[C@@H](C)C1` [Compound 131, 1-((3S,5R)-4-(3-(4-(2,6-dichloro-3,5-dimethoxyphenyl)-8-(methylamino)-[1,2,4]triazolo[1′,5′:1,6]pyrido[2,3-d]pyrimidin-2-yl)propyl)-3,5-dimethylpiperazin-1-yl)prop-2-en-1-one], the IC50 fell in the range of 10 to 100 nM.

Consider `C=CC(=O)N1CCN(CCCc2nc3c(-c4c(Cl)c(OC)cc(OC)c4Cl)cc4cnc(NCC(F)(F)F)nc4n3n2)CC1` [Compound 137, 1-(4-(3-(4-(2,6-dichloro-3,5-dimethoxyphenyl)-8-((2,2,2-trifluoroethyl)amino)-[1,2,4]triazolo[1′,5′:1,6]pyrido[2,3-d]pyrimidin-2-yl)propyl)piperazin-1-yl)prop-2-en-1-one], for which the IC50 lay within 1 to 10 nM.

For the origin of these results see patent publication US11365196B2, “FGFR inhibitor and application thereof” (Betta Pharmaceuticals Co., Ltd., priority 2017, dated 2022).
